Key:
[1] = system: Mycobacterium tuberculosis Erdman (autoluminescent); experiment: AUC25, normalised area under dose response up to IC25 (three-drug combination) (fraction (0-1)); higher = more potent at low dose
Procedure: (§1)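 DiaMOND equipotent three-drug combination dose responses (10 doses, 1.5- or 2-fold spacing, centred on IC90) against autoluminescent M. tuberculosis Erdman in 8 in vitro models. Read-out is OD600, or luminescence for the intracellular and dormancy models, normalised to untreated wells. Hill-fit Einf, AUC25 and GRinf are potency metrics; FIC50 and FIC90 are total Loewe fractional inhibitory concentrations as log2 (negative = synergy).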

[2] = system: Mycobacterium tuberculosis Erdman (autoluminescent); experiment: Einf, fitted maximum growth inhibition of three-drug combination (fraction); higher = stronger maximal inhibition
Procedure: as §1

[3] = system: Mycobacterium tuberculosis Erdman (autoluminescent); experiment: total FIC90 (Loewe) at 90% inhibition, three-drug combination (log2); higher = more antagonistic
Procedure: as §1

[4] = system: Mycobacterium tuberculosis Erdman (autoluminescent); experiment: total FIC50 (Loewe) at 50% inhibition, three-drug combination (log2); higher = more antagonistic
Procedure: as §1

[5] = system: Mycobacterium tuberculosis Erdman (autoluminescent); experiment: GRinf, maximum normalised growth rate inhibition (three-drug combination) (unitless (-1 to 1)); higher = less effect (negative = killing)
Procedure: as §1

CC[C@@H](CO)NCCN[C@@H](CC)CO [ethambutol] + COc1c(N2C[C@@H]3CCCN[C@@H]3C2)c(F)cc2c(=O)c(C(=O)O)cn(C3CC3)c12 [moxifloxacin] + CO[C@H]1/C=C/O[C@@]2(C)Oc3c(C)c(O)c4c(O)c(c(/C=N/N5CCN(C)CC5)c(O)c4c3C2=O)NC(=O)/C(C)=C\C=C\[C@H](C)[C@H](O)[C@@H](C)[C@@H](O)[C@@H](C)[C@H](OC(C)=O)[C@@H]1C [rifampicin]
Details | AUC25, [1] | Einf, [2] | GRinf, [5] | total FIC50, [4] | total FIC90, [3]
in vitro model: acidic pH 5.7, time point: constant (~7 days, model-specific) | 0.0728 | 0.842 | 0.00792 | 0.27 | –
in vitro model: acidic pH 5.7, time point: terminal (~4-5 doublings, model-specific) | 0.033 | 0.969 | -0.0608 | 0.591 | -0.139
in vitro model: intracellular J774, time point: constant = terminal | – | 0.965 | -0.353 | – | -1.82

Details | AUC25, [1] | Einf, [2] | GRinf, [5] | total FIC50, [4] | total FIC90, [3]
in vitro model: butyrate, time point: constant (~7 days, model-specific) | 0.0797 | 0.924 | -0.0218 | 0.419 | –
in vitro model: butyrate, time point: terminal (~4-5 doublings, model-specific) | 0.0647 | 0.966 | -0.0188 | 0.334 | -0.296
in vitro model: cholesterol 0.05 mM, time point: constant (~7 days, model-specific) | 0.104 | 0.602 | 0.0718 | 0.0825 | –
in vitro model: cholesterol 0.05 mM, time point: terminal (~4-5 doublings, model-specific) | 0.082 | 0.876 | 0.198 | 0.896 | –
in vitro model: cholesterol-high 0.2 mM, time point: constant (~7 days, model-specific) | 0.0425 | 0.937 | -0.354 | 1.01 | –
in vitro model: cholesterol-high 0.2 mM, time point: terminal (~4-5 doublings, model-specific) | 0.0582 | 1 | -0.753 | 1.13 | 1.05
in vitro model: dormancy (butyrate + nitrate, low O2), time point: constant (~7 days, model-specific) | 0.0959 | 0.838 | 0.346 | -0.35 | –
in vitro model: dormancy (butyrate + nitrate, low O2), time point: terminal (~4-5 doublings, model-specific) | 0.0588 | 0.985 | -0.0843 | 0.268 | -0.495
in vitro model: standard 7H9 glycerol, time point: constant = terminal | 0.0299 | 0.861 | 0.231 | 0.166 | –
in vitro model: valerate, time point: constant (~7 days, model-specific) | 0.0379 | 0.867 | 0.0142 | 0.576 | –
in vitro model: valerate, time point: terminal (~4-5 doublings, model-specific) | 0.0266 | 0.93 | 0.0403 | 0.645 | -0.611

CC(C)/N=c1\cc2n(-c3ccc(Cl)cc3)c3ccccc3nc-2cc1Nc1ccc(Cl)cc1 [clofazimine] + CC(=O)NC[C@H]1CN(c2ccc(N3CCOCC3)c(F)c2)C(=O)O1 [linezolid] + O=[N+]([O-])c1cn2c(n1)OC[C@@H](OCc1ccc(OC(F)(F)F)cc1)C2 [pretomanid]
Details | AUC25, [1] | Einf, [2] | GRinf, [5] | total FIC50, [4] | total FIC90, [3]
in vitro model: acidic pH 5.7, time point: constant (~7 days, model-specific) | 0.106 | 0.845 | -0.45 | 0.0449 | –
in vitro model: acidic pH 5.7, time point: terminal (~4-5 doublings, model-specific) | 0.0757 | 0.964 | -0.318 | 1.03 | 0.257
in vitro model: intracellular J774, time point: constant = terminal | – | 0.996 | -0.884 | – | 1.09

Details | AUC25, [1] | Einf, [2] | GRinf, [5] | total FIC50, [4] | total FIC90, [3]
in vitro model: butyrate, time point: constant (~7 days, model-specific) | 0.124 | 0.962 | -0.311 | 0.534 | 1.52
in vitro model: butyrate, time point: terminal (~4-5 doublings, model-specific) | 0.0915 | 0.98 | -0.185 | 0.691 | 1.09
in vitro model: cholesterol 0.05 mM, time point: constant (~7 days, model-specific) | 0.133 | 0.677 | -0.0316 | -0.375 | –
in vitro model: cholesterol 0.05 mM, time point: terminal (~4-5 doublings, model-specific) | 0.136 | 0.918 | -0.14 | 0.13 | 2.05
in vitro model: cholesterol-high 0.2 mM, time point: constant (~7 days, model-specific) | 0.116 | 0.922 | -0.441 | 0.0459 | 1.18
in vitro model: cholesterol-high 0.2 mM, time point: terminal (~4-5 doublings, model-specific) | 0.123 | 1 | -0.938 | -0.122 | 0.391
in vitro model: dormancy (butyrate + nitrate, low O2), time point: constant (~7 days, model-specific) | 0.0841 | 0.925 | 0.221 | 0.87 | 1.32
in vitro model: dormancy (butyrate + nitrate, low O2), time point: terminal (~4-5 doublings, model-specific) | 0.0337 | 0.986 | -0.216 | 0.422 | 0.0103
in vitro model: standard 7H9 glycerol, time point: constant = terminal | 0.128 | 0.951 | -0.277 | 0.0629 | 0.915
in vitro model: valerate, time point: constant (~7 days, model-specific) | 0.14 | 0.85 | -0.138 | 0.292 | –
in vitro model: valerate, time point: terminal (~4-5 doublings, model-specific) | 0.0928 | 0.892 | 0.125 | 0.0202 | 1.37

NNC(=O)c1ccncc1 [isoniazid] + NC(=O)c1cnccn1 [pyrazinamide] + CO[C@H]1/C=C/O[C@@]2(C)Oc3c(C)c(O)c4c(O)c(c(/C=N/N5CCN(C)CC5)c(O)c4c3C2=O)NC(=O)/C(C)=C\C=C\[C@H](C)[C@H](O)[C@@H](C)[C@@H](O)[C@@H](C)[C@H](OC(C)=O)[C@@H]1C [rifampicin]
Details | AUC25, [1] | Einf, [2] | GRinf, [5] | total FIC50, [4] | total FIC90, [3]
in vitro model: acidic pH 5.7, time point: constant (~7 days, model-specific) | 0.0814 | 0.864 | -0.12 | -1.79 | –
in vitro model: acidic pH 5.7, time point: terminal (~4-5 doublings, model-specific) | 0.0574 | 0.988 | -0.193 | -1.2 | -1.75
in vitro model: intracellular J774, time point: constant = terminal | – | 0.976 | -0.255 | – | 0.327

Details | AUC25, [1] | Einf, [2] | GRinf, [5] | total FIC50, [4] | total FIC90, [3]
in vitro model: butyrate, time point: constant (~7 days, model-specific) | 0.103 | 0.921 | 0.00703 | -2.04 | 0.665
in vitro model: butyrate, time point: terminal (~4-5 doublings, model-specific) | 0.0827 | 0.967 | 0.0033 | -2.09 | -2.12
in vitro model: cholesterol 0.05 mM, time point: constant (~7 days, model-specific) | 0.088 | 0.633 | -0.0371 | – | –
in vitro model: cholesterol 0.05 mM, time point: terminal (~4-5 doublings, model-specific) | 0.0858 | 0.865 | -0.1 | 0.166 | –
in vitro model: cholesterol-high 0.2 mM, time point: constant (~7 days, model-specific) | 0.0657 | 0.91 | -0.258 | 0.702 | –
in vitro model: cholesterol-high 0.2 mM, time point: terminal (~4-5 doublings, model-specific) | 0.0664 | 1 | -0.795 | 1.16 | 0.74
in vitro model: dormancy (butyrate + nitrate, low O2), time point: constant (~7 days, model-specific) | 0.0642 | 0.891 | 0.224 | -2.66 | -3.39
in vitro model: dormancy (butyrate + nitrate, low O2), time point: terminal (~4-5 doublings, model-specific) | 0.0565 | 0.979 | -0.0973 | -3.09 | -2.85
in vitro model: standard 7H9 glycerol, time point: constant = terminal | 0.0763 | 0.917 | 0.0491 | -5.81 | –
in vitro model: valerate, time point: constant (~7 days, model-specific) | 0.0587 | 0.86 | 0.0565 | -2.11 | –
in vitro model: valerate, time point: terminal (~4-5 doublings, model-specific) | 0.0331 | 0.928 | 0.0571 | -1.04 | -1.36
